Tested on: MCF7
Assay: Cytotoxicity against human MCF7 cells after 48 hrs by SRB assay
Type: functional, cell-based

SMILES | IC50 [nM]
COc1ccc(/C=N/NC(=O)c2ccc(Nc3ccccc3C(=O)N/N=C/c3ccc(OC)c(OC)c3)cc2)cc1OC | 810
Sc1nnc(-c2ccc(Nc3ccccc3-c3nnc(S)o3)cc2)o1 | 2000
c1ccc(CSc2nnc(-c3ccc(Nc4ccccc4-c4nnc(SCc5ccccc5)o4)cc3)o2)cc1 | 730
C=CCSc1nnc(-c2ccc(Nc3ccccc3-c3nnc(SCC=C)o3)cc2)o1 | 1050
CN(C)c1ccc(/C=N/NC(=O)c2ccc(Nc3ccccc3C(=O)N/N=C/c3ccc(N(C)C)cc3)cc2)cc1 | 1230
CCNc1nnc(-c2ccc(Nc3ccccc3-c3nnc(NCC)s3)cc2)s1 | 940
CCn1c(S)nnc1-c1ccc(Nc2ccccc2-c2nnc(S)n2CC)cc1 | 2380

— ChEMBL document CHEMBL1240436, “Synthesis and biological evaluation of novel 2,4'-bis substituted diphenylamines as anticancer agents and potential epidermal growth factor receptor tyrosine kinase inhibitors” (Eur J Med Chem, 2010)
